From US20110166112A1, “METHOD FOR STIMULATING PLATELET PRODUCTION” (Eisai, Inc., priority 2009, published 2011)

Test system: subjects with chronic idiopathic thrombocytopenic purpura (ITP)
Assay: Phase 2 28-day study of E5501 tablets: safety and tolerability (TEAEs, discontinuations)
Format: in vivo, human
Conditions: for Discontinued study, primary reason Adverse Event or SAE / Discontinued study, primary reason Platelet Count Increase to ≧500 K/mm^3: randomized/safety/FAS; for Blood and lymphatic system disorders / Cardiac disorders / Eye disorders / Gastritis haemorrhagic / Gastrointestinal disorders / Infections and infestations / Myocardial infarction / Nervous system disorders / Pneumonia / Retinal artery occlusion / Thrombocytopenia / Transient ischaemic attack: serious TEAE
Description: This was a phase 2, multi-center, double-blind, randomized, placebo-controlled, dose-ranging, parallel group study of E5501 tablets, used in the treatment of subjects with chronic idiopathic thrombocytopenic purpura (ITP) refractory to or relapsed after at least one prior ITP therapy. Subjects who met all entry criteria were randomly assigned in a 3:3:3:3:1 ratio to one of the following five treatment groups dosed daily for 28 days: 1) E5501 2.5 mg; 2) E5501 5 mg; 3) E5501 10 mg; 4) E5501 20 mg; or 5) placebo (PBO). Each E5501 dosing group consisted of 15 subjects while the PBO group consisted of 5 subjects. All study subjects were evaluated weekly (days 7, 14, 21 and 28) for safety and efficacy while receiving study treatment, with a final assessment for safety and effectiveness performed 4 weeks after the last study dose (day 56) unless the subject entered the follow-on study. Platelet counts were also measured on day 3 and day 5.
The safety and tolerability parameters included adverse events, clinical laboratory parameters, study drug exposure, vital electrocardiograms, concomitant medications, serum pregnancy tests for women of childbearing potential and physical examinations including height, weight, general appearance and recording of vital signs.
The populations of interest were defined as follows: • The randomized population included all subjects who were randomized into the study. • The safety population included all randomized subjects who receive at least one dose of study drug and have at least one safety assessment. • The pharmacokinetic (PK) population included all subjects who provided blood sample for analysis of E5501. A subject was included in this population if the subject had at least one blood draw for PK assessment. • The full analysis set (FAS) included all subjects who provided adequate data to derive at least one efficacy assessment. […] The day 28 visit window was defined to be from day 25, to last dose day+1, inclusively; • Other major protocol violations that impacted the platelet endpoint evaluation. Results from Planned Analyses
Subject Disposition. Sixty four subjects were randomly assigned to treatment in this study. All treated subjects provided adequate efficacy data and therefore were included in the FAS population. The number and percentage of subjects who completed treatment or discontinued prematurely were summarized by treatment groups as shown in Table 1. In addition, the number and percentage of subjects who withdrew were summarized by reason for discontinuation by treatment group. The majority (>85%) of subjects completed the study across all dose groups for the FAS, randomized, and safety populations. Seven subjects who discontinued the study early all were from E5501 dose groups: two subjects in each of 2.5, 10 and 20 mg dose groups and one subject in the 5 mg dose group.

With `O=C(Nc1nc(-c2cc(Cl)cs2)c(N2CCN(C3CCCCC3)CC2)s1)c1cnc(N2CCC(C(=O)O)CC2)c(Cl)c1` [E5501, 1-(3-chloro-5-{[4-(4-chlorothiophen-2-yl)-5-(4-cyclohexylpiperazin-1-yl)thiazol-2-yl]carbamoyl}pyridine-2-yl)piperidine-4-carboxylic acid] the Diarrhoea (TEAE, Total E5501) was 5 (8.5) n (%), the Ecchymosis (TEAE, Total E5501) was 3 (5.1) n (%) and the Epistaxis (TEAE, Total E5501) was 9 (15.3) n (%). For the same compound, the Fatigue (TEAE, Total E5501) was 12 (20.3) n (%), the Headache (TEAE, Total E5501) was 12 (20.3) n (%) and the Migraine (TEAE, Total E5501) was 2 (3.4) n (%). For the same compound, the Nausea (TEAE, Total E5501) was 3 (5.1) n (%), the Pain in extremity (TEAE, Total E5501) was 3 (5.1) n (%) and the Petechiae (TEAE, Total E5501) was 2 (3.4) n (%). For the same compound, the Platelet count increased (TEAE, Total E5501) was 4 (6.8) n (%), the “Upper respiratory tract infection” value (TEAE, Total E5501) was 3 (5.1) n (%) and the Vomiting (TEAE, Total E5501) was 4 (6.8) n (%). The Death (Total E5501) was 0 n (%), the “Serious TEAEs (Any Serious TEAE)” value (Total E5501) was 3 (5.1) n (%) and the “TEAE Leading to Study Treatment Dose Interruption” value (Total E5501) was 3 (5.1) n (%). For the same compound, the “TEAE Leading to Study Treatment Withdrawal” value (Total E5501) was 4 (6.8) n (%), the TEAEs (Total E5501) was 50 (84.7) n (%) and the “Treatment-Related Serious TEAEs” value (Total E5501) was 1 (1.7) n (%). The “Treatment-Related TEAEs” value (Total E5501) was 35 (59.3) n (%), the “TEAE leading to study treatment interruption” value (all E5501) was 3 cases and the “TEAE leading to withdrawal of study treatment” value (all E5501) was 4 cases. The “subjects with a TEAE leading to study drug withdrawal” value (all E5501) was 6.8%, the Epistaxis (all E5501-treated subjects) was 15.3% and the Fatigue (all E5501-treated subjects) was 20.3%. The Headache (all E5501-treated subjects) was 20.3%, the “subjects who experienced a treatment emergent adverse event (TEAE)” value (all E5501-treated subjects) was 84.7% and the “subjects with TEAE possibly or probably related to E5501” value (all E5501-treated subjects) was 59.3%. For the same compound, the “subjects who withdrew due to an AE” value (one for each of the 5 and 10 mg dose groups) was “two”, the “number of serious TEAEs” value (overall) was 6 and the “Discontinued study, primary reason Adverse Event or SAE” value (2.5 mg) was 0 n (%). The “Discontinued study, primary reason Platelet Count Increase to ≧500 K/mm^3” value (2.5 mg) was 0 n (%), the “Discontinued study, primary reason Adverse Event or SAE” value (5 mg) was 1 (6.7) n (%) and the “Discontinued study, primary reason Platelet Count Increase to ≧500 K/mm^3” value (5 mg) was 0 n (%). The “Discontinued study, primary reason Adverse Event or SAE” value (10 mg) was 1 (7.1) n (%), the “Discontinued study, primary reason Platelet Count Increase to ≧500 K/mm^3” value (10 mg) was 0 n (%) and the “Discontinued study, primary reason Adverse Event or SAE” value (20 mg) was 0 n (%). The “Discontinued study, primary reason Platelet Count Increase to ≧500 K/mm^3” value (20 mg) was 2 (13.3) n (%), the “Discontinued study, primary reason Adverse Event or SAE” value (Total E5501) was 2 (3.4) n (%) and the “Discontinued study, primary reason Platelet Count Increase to ≧500 K/mm^3” value (Total E5501) was 2 (3.4) n (%). The “Blood and lymphatic system disorders” value (2.5 mg) was 1 (6.7) n (%), the Cardiac disorders (2.5 mg) was 0 n (%) and the Eye disorders (2.5 mg) was 0 n (%). For the same compound, the Gastritis haemorrhagic (2.5 mg) was 1 (6.7) n (%), the Gastrointestinal disorders (2.5 mg) was 1 (6.7) n (%) and the Infections and infestations (2.5 mg) was 0 n (%). For the same compound, the Myocardial infarction (2.5 mg) was 0 n (%), the Nervous system disorders (2.5 mg) was 0 n (%) and the Pneumonia (2.5 mg) was 0 n (%). The Retinal artery occlusion (2.5 mg) was 0 n (%), the Thrombocytopenia (2.5 mg) was 1 (6.7) n (%) and the Transient ischaemic attack (2.5 mg) was 0 n (%). The “Blood and lymphatic system disorders” value (5 mg) was 0 n (%), the Cardiac disorders (5 mg) was 0 n (%) and the Eye disorders (5 mg) was 0 n (%). The Gastritis haemorrhagic (5 mg) was 0 n (%), the Gastrointestinal disorders (5 mg) was 0 n (%) and the Infections and infestations (5 mg) was 0 n (%). For the same compound, the Myocardial infarction (5 mg) was 0 n (%), the Nervous system disorders (5 mg) was 0 n (%) and the Pneumonia (5 mg) was 0 n (%). The Retinal artery occlusion (5 mg) was 0 n (%), the Thrombocytopenia (5 mg) was 0 n (%) and the Transient ischaemic attack (5 mg) was 0 n (%). The “Blood and lymphatic system disorders” value (10 mg) was 0 n (%), the Cardiac disorders (10 mg) was 1 (7.1) n (%) and the Eye disorders (10 mg) was 1 (7.1) n (%). For the same compound, the Gastritis haemorrhagic (10 mg) was 0 n (%), the Gastrointestinal disorders (10 mg) was 0 n (%) and the Infections and infestations (10 mg) was 1 (7.1) n (%). The Myocardial infarction (10 mg) was 1 (7.1) n (%), the Nervous system disorders (10 mg) was 1 (7.1) n (%) and the Pneumonia (10 mg) was 1 (7.1) n (%). The Retinal artery occlusion (10 mg) was 1 (7.1) n (%), the Thrombocytopenia (10 mg) was 0 n (%) and the Transient ischaemic attack (10 mg) was 1 (7.1) n (%). For the same compound, the “Blood and lymphatic system disorders” value (20 mg) was 0 n (%), the Cardiac disorders (20 mg) was 0 n (%) and the Eye disorders (20 mg) was 0 n (%). For the same compound, the Gastritis haemorrhagic (20 mg) was 0 n (%), the Gastrointestinal disorders (20 mg) was 0 n (%) and the Infections and infestations (20 mg) was 0 n (%). For the same compound, the Myocardial infarction (20 mg) was 0 n (%), the Nervous system disorders (20 mg) was 0 n (%) and the Pneumonia (20 mg) was 0 n (%). For the same compound, the Retinal artery occlusion (20 mg) was 0 n (%), the Thrombocytopenia (20 mg) was 0 n (%) and the Transient ischaemic attack (20 mg) was 0 n (%). The “Blood and lymphatic system disorders” value (Total E5501) was 1 (1.7) n (%), the Cardiac disorders (Total E5501) was 1 (1.7) n (%) and the Eye disorders (Total E5501) was 1 (1.7) n (%). The Gastritis haemorrhagic (Total E5501) was 1 (1.7) n (%), the Gastrointestinal disorders (Total E5501) was 1 (1.7) n (%) and the Infections and infestations (Total E5501) was 1 (1.7) n (%). For the same compound, the Myocardial infarction (Total E5501) was 1 (1.7) n (%), the Nervous system disorders (Total E5501) was 1 (1.7) n (%) and the Pneumonia (Total E5501) was 1 (1.7) n (%). For the same compound, the Retinal artery occlusion (Total E5501) was 1 (1.7) n (%), the Thrombocytopenia (Total E5501) was 1 (1.7) n (%) and the Transient ischaemic attack (Total E5501) was 1 (1.7) n (%).
